Experimental data: patent publication US20260337208A1, “HETEROCYCLIC DERIVATIVES AS JANUS KINASE INHIBITORS” (CHIESI FARMACEUTICI S.P.A., priority 2022, published 2026)

How the values were obtained:
[1] = test system: pSTAT6 in BEAS-2B human cell line; assay: Inhibition of IL-13 induced pSTAT6 in BEAS; type: cell-based; details: for IC50: Homo sapiens, BEAS-2B, 0.5 h, IL-13 trigger, 30 min, parent compound; for Fold difference parent vs predicted acid metabolite: ratio=IC50 predicted acid metabolite/IC50 ester
Summary of the method: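 BEAS-2B cells grown 48 h, pre-treated 30 min with compound, then stimulated 30 min with IL-13. Lysate pSTAT6 (Tyr641) measured by sandwich ELISA. Eleven 5-fold dilutions from 10 μM, in duplicate, fitted to IC50.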

TYK2 = TYK2 (Homo sapiens, UniProt P29597); assay: Biochemical potency on Tyk2, TR-FRET (LANCE Ultra kinase assay); details: ATP corresponding to Km; cell-free; read-out: TYK2 inhibitory activity (pIC50) (converted)
Summary of the method: (§1)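 ULight-JAK-1 (Tyr1023) peptide phosphorylation at Km ATP, 1.5 h r.t.; substrate solution held peptide 30/50/20/10 nM and ATP 20/0.7/0.2/12 μM, enzyme solution 0.15/0.083/0.025/0.144 ng/μL (JAK1/JAK2/JAK3/TYK2). EDTA stop, Eu-PT66 antibody TR-FRET read at 665 nm; 11-point 5-fold dilutions from 20 μM; IC50 by variable-slope fit.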

JAK2 = JAK2 (Homo sapiens, UniProt O60674); assay: Biochemical potency on JAK2, TR-FRET (LANCE Ultra kinase assay); details: ATP corresponding to Km; cell-free; read-out: JAK2 inhibitory activity (pIC50) (converted)
Summary of the method: as §1

JAK3 = biological target: T1, JAK3 (Homo sapiens, UniProt P52333); assay: Biochemical potency on JAK3, TR-FRET (LANCE Ultra kinase assay); details: ATP corresponding to Km; cell-free; read-out: JAK3 inhibitory activity (pIC50) (converted)
T1 sequence (P52333 1-1124): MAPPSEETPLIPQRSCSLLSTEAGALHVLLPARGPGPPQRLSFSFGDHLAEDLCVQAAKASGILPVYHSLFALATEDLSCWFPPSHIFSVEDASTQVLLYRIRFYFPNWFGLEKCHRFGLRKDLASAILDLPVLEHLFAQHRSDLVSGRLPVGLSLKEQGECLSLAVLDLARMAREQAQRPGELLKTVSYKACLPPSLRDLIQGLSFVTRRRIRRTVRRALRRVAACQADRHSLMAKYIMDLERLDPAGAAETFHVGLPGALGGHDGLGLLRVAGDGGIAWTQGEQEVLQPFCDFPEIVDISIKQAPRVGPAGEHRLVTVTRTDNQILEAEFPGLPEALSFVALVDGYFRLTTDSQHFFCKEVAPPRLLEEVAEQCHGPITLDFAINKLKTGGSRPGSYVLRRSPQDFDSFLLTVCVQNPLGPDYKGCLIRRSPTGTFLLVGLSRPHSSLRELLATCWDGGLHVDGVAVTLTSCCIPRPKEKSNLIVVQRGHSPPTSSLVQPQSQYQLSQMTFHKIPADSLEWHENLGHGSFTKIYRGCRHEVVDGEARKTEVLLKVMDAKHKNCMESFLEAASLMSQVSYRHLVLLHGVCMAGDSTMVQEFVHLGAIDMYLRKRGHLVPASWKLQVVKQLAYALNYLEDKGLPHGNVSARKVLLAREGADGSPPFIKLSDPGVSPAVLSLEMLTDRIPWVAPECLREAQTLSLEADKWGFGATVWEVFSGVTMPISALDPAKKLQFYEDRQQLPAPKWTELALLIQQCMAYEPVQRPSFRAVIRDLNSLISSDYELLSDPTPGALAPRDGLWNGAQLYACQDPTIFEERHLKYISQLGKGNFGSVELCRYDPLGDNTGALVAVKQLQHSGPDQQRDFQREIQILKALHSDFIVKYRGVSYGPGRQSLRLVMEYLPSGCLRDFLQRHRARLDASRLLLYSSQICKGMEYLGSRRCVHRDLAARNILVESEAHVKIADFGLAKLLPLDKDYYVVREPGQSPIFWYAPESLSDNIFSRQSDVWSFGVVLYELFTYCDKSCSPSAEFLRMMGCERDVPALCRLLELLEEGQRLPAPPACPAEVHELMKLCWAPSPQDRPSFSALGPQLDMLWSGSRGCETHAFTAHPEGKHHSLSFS
Summary of the method: as §1

JAK1 = JAK1 (Homo sapiens, UniProt P23458); assay: Biochemical potency on JAK1, TR-FRET (LANCE Ultra kinase assay); details: ATP corresponding to Km; cell-free; read-out: JAK1 inhibitory activity (pIC50) (converted)
Summary of the method: as §1

Chain of TYK2 (P29597 whole entry): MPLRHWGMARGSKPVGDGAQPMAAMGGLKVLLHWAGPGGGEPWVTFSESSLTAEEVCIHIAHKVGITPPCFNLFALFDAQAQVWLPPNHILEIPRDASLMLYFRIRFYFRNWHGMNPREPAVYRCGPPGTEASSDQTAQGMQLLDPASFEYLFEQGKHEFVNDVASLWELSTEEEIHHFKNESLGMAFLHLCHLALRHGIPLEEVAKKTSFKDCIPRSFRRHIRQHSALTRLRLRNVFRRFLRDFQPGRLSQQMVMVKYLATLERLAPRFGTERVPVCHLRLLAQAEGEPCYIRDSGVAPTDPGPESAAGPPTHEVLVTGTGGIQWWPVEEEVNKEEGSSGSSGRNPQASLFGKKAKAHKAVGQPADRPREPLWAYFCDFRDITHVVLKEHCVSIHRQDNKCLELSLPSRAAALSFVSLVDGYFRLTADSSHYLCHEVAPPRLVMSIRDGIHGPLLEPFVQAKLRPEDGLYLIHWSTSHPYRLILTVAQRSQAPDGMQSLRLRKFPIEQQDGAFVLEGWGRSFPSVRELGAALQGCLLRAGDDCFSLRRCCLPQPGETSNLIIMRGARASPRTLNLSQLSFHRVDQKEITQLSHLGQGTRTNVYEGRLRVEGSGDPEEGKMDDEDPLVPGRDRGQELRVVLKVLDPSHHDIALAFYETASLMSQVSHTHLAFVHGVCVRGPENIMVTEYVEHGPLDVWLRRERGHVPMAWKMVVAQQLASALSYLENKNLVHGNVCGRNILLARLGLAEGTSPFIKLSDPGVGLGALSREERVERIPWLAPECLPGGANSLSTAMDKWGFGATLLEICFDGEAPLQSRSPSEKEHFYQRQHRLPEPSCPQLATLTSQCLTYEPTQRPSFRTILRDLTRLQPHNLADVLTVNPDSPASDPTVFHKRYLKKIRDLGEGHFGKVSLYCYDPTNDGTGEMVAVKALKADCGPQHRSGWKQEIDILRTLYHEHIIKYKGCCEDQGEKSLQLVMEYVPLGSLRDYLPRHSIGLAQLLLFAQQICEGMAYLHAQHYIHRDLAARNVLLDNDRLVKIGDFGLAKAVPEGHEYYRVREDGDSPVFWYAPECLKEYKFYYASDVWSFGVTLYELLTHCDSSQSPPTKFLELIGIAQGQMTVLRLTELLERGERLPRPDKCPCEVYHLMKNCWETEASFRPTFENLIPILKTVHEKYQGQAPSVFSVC
Chain of JAK2 (O60674 whole entry): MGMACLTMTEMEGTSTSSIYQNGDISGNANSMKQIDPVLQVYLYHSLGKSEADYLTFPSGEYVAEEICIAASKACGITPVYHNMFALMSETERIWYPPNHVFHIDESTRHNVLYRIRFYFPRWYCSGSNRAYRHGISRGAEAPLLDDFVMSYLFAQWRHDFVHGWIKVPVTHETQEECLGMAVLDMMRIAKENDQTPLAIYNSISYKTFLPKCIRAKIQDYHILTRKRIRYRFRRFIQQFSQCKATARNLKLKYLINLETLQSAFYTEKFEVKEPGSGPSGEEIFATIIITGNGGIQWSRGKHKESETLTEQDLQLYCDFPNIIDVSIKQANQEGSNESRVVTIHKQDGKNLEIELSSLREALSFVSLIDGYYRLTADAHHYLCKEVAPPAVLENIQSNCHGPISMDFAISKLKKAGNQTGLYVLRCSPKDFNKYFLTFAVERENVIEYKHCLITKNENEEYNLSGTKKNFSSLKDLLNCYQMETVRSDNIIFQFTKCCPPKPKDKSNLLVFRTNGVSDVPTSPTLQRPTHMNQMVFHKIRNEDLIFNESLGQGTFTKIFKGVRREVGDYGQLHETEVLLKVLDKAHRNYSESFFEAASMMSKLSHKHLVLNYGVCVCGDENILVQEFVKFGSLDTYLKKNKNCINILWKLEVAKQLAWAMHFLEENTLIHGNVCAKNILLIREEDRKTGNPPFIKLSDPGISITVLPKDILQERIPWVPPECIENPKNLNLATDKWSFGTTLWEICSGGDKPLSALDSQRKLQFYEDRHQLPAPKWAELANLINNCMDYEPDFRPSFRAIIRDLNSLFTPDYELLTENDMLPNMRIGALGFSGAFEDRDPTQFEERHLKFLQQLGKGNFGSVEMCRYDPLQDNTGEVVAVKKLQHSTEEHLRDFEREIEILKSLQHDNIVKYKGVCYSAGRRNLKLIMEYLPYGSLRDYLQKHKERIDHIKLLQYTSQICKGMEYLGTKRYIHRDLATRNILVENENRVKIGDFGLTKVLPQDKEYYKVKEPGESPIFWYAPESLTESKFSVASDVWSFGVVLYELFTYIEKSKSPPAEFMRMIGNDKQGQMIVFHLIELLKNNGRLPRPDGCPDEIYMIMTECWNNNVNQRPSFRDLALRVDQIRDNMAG
Chain of JAK1 (P23458 whole entry): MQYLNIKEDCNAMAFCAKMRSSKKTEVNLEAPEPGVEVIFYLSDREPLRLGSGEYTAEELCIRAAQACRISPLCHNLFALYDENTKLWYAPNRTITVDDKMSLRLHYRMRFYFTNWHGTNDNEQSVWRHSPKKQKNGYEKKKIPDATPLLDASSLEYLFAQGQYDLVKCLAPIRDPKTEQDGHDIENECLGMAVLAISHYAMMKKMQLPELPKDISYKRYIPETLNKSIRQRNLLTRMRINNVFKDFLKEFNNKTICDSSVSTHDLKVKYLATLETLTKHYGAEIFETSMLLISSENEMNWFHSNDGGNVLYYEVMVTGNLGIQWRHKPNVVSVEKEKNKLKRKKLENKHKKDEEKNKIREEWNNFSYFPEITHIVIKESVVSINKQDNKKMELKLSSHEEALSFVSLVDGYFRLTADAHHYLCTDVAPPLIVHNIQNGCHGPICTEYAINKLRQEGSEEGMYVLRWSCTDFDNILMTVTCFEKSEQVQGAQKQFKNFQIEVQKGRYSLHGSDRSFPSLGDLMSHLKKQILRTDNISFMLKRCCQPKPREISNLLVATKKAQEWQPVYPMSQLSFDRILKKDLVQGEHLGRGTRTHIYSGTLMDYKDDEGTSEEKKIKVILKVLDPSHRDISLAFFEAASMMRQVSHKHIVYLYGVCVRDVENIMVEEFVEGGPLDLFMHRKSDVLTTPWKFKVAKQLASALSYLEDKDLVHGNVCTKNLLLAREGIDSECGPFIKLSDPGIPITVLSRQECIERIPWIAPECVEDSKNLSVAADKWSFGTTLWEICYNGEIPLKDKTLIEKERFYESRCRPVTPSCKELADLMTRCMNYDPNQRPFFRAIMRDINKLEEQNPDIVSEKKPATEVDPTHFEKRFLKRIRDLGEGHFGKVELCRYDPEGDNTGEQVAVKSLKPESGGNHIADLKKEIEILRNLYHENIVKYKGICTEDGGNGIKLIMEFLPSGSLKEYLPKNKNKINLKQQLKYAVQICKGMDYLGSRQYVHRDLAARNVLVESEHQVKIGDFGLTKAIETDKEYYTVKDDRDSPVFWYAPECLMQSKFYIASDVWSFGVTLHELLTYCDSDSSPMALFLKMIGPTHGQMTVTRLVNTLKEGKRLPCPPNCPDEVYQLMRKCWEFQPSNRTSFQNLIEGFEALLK

Row | IC50 (TYK2) [nM] | IC50 (JAK2) [nM] | IC50 (JAK3) [nM] | IC50 (JAK1) [nM] | SMILES | IC50 [1] [nM] | Fold difference parent vs predicted acid metabolite [1]
1 | 5.01 to 50.1 | ≤ 5.01 | ≤ 5.01 | ≤ 5.01 | COc1cc2c(cc1-n1nc(C(=O)NCCN3CC[C@@H](C(=O)OCC(C)(C)C#N)C3)c3cnc(-c4cnn5cccnc45)cc31)OCCN2 [Example 49, 2-cyano-2-methylpropyl (R)-1-(2-(1-(6-methoxy-3,4-dihydro-2H-benzo[b][1,4]oxazin-7-yl)-6-(pyrazolo[1,5-a]pyrimidin-3-yl)-1H-pyrazolo[4,3-c]pyridine-3-carboxamido)ethyl)pyrrolidine-3-carboxylate] | ≤ 5.01 | kkk (200>ratio≥100)
2 | ≤ 5.01 | ≤ 5.01 | ≤ 5.01 | ≤ 5.01 | CCOC(=O)C1CCN(CCOC(=O)Nc2nn(-c3cc4c(cc3OC)NCCS4)c3cc(-c4cnn5cccnc45)ncc23)CC1 [Example 4, ethyl 1-(2-(((1-(6-methoxy-3,4-dihydro-2H-benzo[b][1,4]thiazin-7-yl)-6-(pyrazolo[1,5-a]pyrimidin-3-yl)-1H-pyrazolo[4,3-c]pyridin-3-yl)carbamoyl)oxy)ethyl)piperidine-4-carboxylate] | ≤ 5.01 | kk (100>ratio≥10)
3 | 5.01 to 50.1 | 5.01 to 50.1 | ≤ 5.01 | ≤ 5.01 | CCOC(=O)C1CN(CCNC(=O)c2nn(-c3cc4c(cc3OC)NCCO4)c3cc(-c4cnn5cccnc45)ncc23)CCN1C (centres unmarked) [Example 36, ethyl 4-(2-(1-(6-methoxy-3,4-dihydro-2H-benzo[b][1,4]oxazin-7-yl)-6-(pyrazolo[1,5-a]pyrimidin-3-yl)-1H-pyrazolo[4,3-c]pyridine-3-carboxamido)ethyl)-1-methylpiperazine-2-carboxylate] | 5.01 to 50.1 | –
4 | 5.01 to 50.1 | ≤ 5.01 | ≤ 5.01 | ≤ 5.01 | CCSC(=O)C1CCN(CCNC(=O)c2nn(-c3cc4c(cc3OC)NCCO4)c3cc(-c4cnn5cccnc45)ncc23)CC1 [Example 59, S-ethyl 1-(2-(1-(6-methoxy-3,4-dihydro-2H-benzo[b][1,4]oxazin-7-yl)-6-(pyrazolo[1,5-a]pyrimidin-3-yl)-1H-pyrazolo[4,3-c]pyridine-3-carboxamido)ethyl)piperidine-4-carbothioate] | ≤ 5.01 | kkkk (ratio≥200)
5 | 5.01 to 50.1 | ≤ 5.01 | ≤ 5.01 | ≤ 5.01 | CCOC(=O)[C@@H]1CCN(CCNC(=O)c2nn(-c3cc4c(cc3OC)NCCO4)c3cc(-c4cnn5cccnc45)ncc23)C1 [Example 43, ethyl (R)-1-(2-(1-(6-methoxy-3,4-dihydro-2H-benzo[b][1,4]oxazin-7-yl)-6-(pyrazolo[1,5-a]pyrimidin-3-yl)-1H-pyrazolo[4,3-c]pyridine-3-carboxamido)ethyl)pyrrolidine-3-carboxylate] | 5.01 to 50.1 | kkk (200>ratio≥100)
6 | 5.01 to 50.1 | ≤ 5.01 | ≤ 5.01 | ≤ 5.01 | CCOC(=O)CC1CCN(CCNC(=O)c2nn(-c3cc4c(cc3OC)NCCO4)c3cc(-c4cnn5cccnc45)ncc23)CC1 [Example 35, ethyl 2-(1-(2-(1-(6-methoxy-3,4-dihydro-2H-benzo[b][1,4]oxazin-7-yl)-6-(pyrazolo[1,5-a]pyrimidin-3-yl)-1H-pyrazolo[4,3-c]pyridine-3-carboxamido)ethyl)piperidin-4-yl)acetate] | ≤ 5.01 | kkkk (ratio≥200)
7 | 5.01 to 50.1 | ≤ 5.01 | ≤ 5.01 | ≤ 5.01 | COc1cc2c(cc1-n1nc(C(=O)NCCN3CCC(C(=O)O[C@H]4CCN(C)C4)CC3)c3cnc(-c4cnn5cccnc45)cc31)OCCN2 [Example 24, (S)-1-methylpyrrolidin-3-yl 1-(2-(1-(6-methoxy-3,4-dihydro-2H-benzo[b][1,4]oxazin-7-yl)-6-(pyrazolo[1,5-a]pyrimidin-3-yl)-1H-pyrazolo[4,3-c]pyridine-3-carboxamido)ethyl)piperidine-4-carboxylate] | 5.01 to 50.1 | kkk (200>ratio≥100)
